Tests used:
Assay in all cases: relative viability (nuclei count vs DMSO), 5 days (fraction); higher = more cells survive
Sulindac = compound: CC1=C(CC(=O)O)c2cc(F)ccc2/C1=C\c1ccc([S+](C)[O-])cc1 [Sulindac]
Summary of the method: (§1)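 MetaXpress counted nuclei in 4× images of lung cancer cell lines that had been fixed, permeabilised and Hoechst-stained in one step. Before that, cells in 1536-well plates were kept overnight at 37 °C, pinned with five √10-spaced library-drug doses on vehicle-anchored plates, and cultured 5 days without medium change. Viability takes treated-well nuclei over vehicle-well nuclei and uses the median across plates. Plates were accepted only at control CV below 25% and at least one doubling.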

Staurosporine = compound: CN[C@@H]1C[C@H]2O[C@@](C)([C@@H]1OC)n1c3ccccc3c3c4c(c5c6ccccc6n2c5c31)C(=O)NC4 [Staurosporine]
Summary of the method: as §1

5-Fluorouracil = compound: O=c1[nH]cc(F)c(=O)[nH]1 [5-Fluorouracil]
Summary of the method: as §1

[1] = compound: CN[C@@H]1C[C@H]2O[C@@](C)([C@@H]1OC)n1c3ccccc3c3c4c(c5c6ccccc6n2c5c31)C(=O)NC4 [Staurosporine] + C[C@@H](Oc1cc(-c2cnn(C3CCNCC3)c2)cnc1N)c1c(Cl)ccc(F)c1Cl [Crizotinib] (partner 1 µM)
Summary of the method: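 Five library-drug doses in √10 steps were combined with a fixed anchor-drug dose, or a single drug was given alone, by pin tool to lung cancer cell lines in 1536-well plates the day after seeding. Nuclei were stained and counted after 5 days. Relative viability is the nuclei count in treated wells over that in vehicle wells, taken as the median of duplicate plates.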

Cell Line | relative viability (Sulindac; 0.08 µM) | relative viability (Sulindac; 0.253 µM) | relative viability (Sulindac; 0.8 µM) | relative viability (Sulindac; 2.53 µM) | relative viability (Sulindac; 8 µM) | relative viability (Staurosporine; 0.005 µM) | relative viability (Staurosporine; 0.01581 µM) | relative viability (Staurosporine; 0.05 µM) | relative viability (Staurosporine; 0.1581 µM) | relative viability (Staurosporine; 0.5 µM) | relative viability (5-Fluorouracil; 0.02 µM) | relative viability (5-Fluorouracil; 0.2 µM) | relative viability (5-Fluorouracil; 0.6325 µM) | relative viability (5-Fluorouracil; 2 µM) | relative viability ([1]; first compound 0.005 µM) | relative viability ([1]; first compound 0.01581 µM) | relative viability ([1]; first compound 0.05 µM) | relative viability ([1]; first compound 0.1581 µM) | relative viability ([1]; first compound 0.5 µM)
NCI-H1355 | 1.02 | 1.06 | 0.873 | 0.971 | 1.08 | 0.856 | 0.238 | 0.363 | 0.197 | 0.159 | 0.925 | 0.877 | 0.438 | 0.309 | 0.834 | 0.727 | 0.366 | 0.258 | 0.234
NCI-H1437 | 1.14 | 1.02 | 0.857 | 1.01 | 1.17 | 0.918 | 0.705 | 0.704 | 0.306 | 0.153 | 0.626 | 0.289 | 0.25 | 0.216 | 0.924 | 0.702 | – | 0.545 | 0.449
NCI-H1563 | 0.898 | 0.973 | 0.936 | 0.967 | 1.14 | 0.724 | 0.592 | 0.542 | 0.547 | – | 0.952 | 1.01 | 1 | 0.815 | 0.696 | 0.559 | 0.635 | 0.587 | 0.503
NCI-H1650 | 0.851 | 1.1 | 0.732 | 0.942 | 1.01 | 0.684 | 0.372 | 0.314 | 0.15 | 0.0851 | 0.814 | 0.878 | 0.564 | 0.343 | 0.537 | 0.389 | 0.242 | 0.197 | 0.106
NCI-H1651 | 1.04 | 1.04 | 0.771 | 1.01 | 1.02 | 1.02 | 0.751 | 0.548 | 0.357 | 0.285 | 1.04 | 0.896 | 0.504 | 0.458 | 0.945 | 0.765 | 0.575 | 0.549 | 0.385
NCI-H1666 | 0.906 | 0.978 | 0.886 | 0.982 | 1.08 | 0.7 | 0.68 | 0.557 | 0.484 | 0.373 | 1.04 | 0.683 | 0.503 | 0.479 | 0.536 | 0.528 | 0.418 | 0.236 | 0.2
NCI-H1703 | 1.11 | 1 | 0.915 | 0.917 | 1.26 | 0.512 | 0.291 | 0.186 | 0.161 | 0.112 | 1.17 | 0.999 | 0.848 | 0.562 | 0.483 | 0.253 | 0.093 | 0.133 | 0.0695
NCI-H1734 | 1.17 | 1 | 0.787 | 0.991 | 1.07 | 0.899 | 0.375 | 0.291 | 0.151 | 0.113 | 0.93 | 1.08 | 0.859 | 0.461 | 0.627 | 0.4 | 0.279 | 0.165 | 0.132
NCI-H1755 | 1.1 | 1.09 | 1.01 | 1.08 | 1.06 | 0.829 | 0.47 | 0.319 | 0.191 | 0.213 | 1.02 | 0.994 | 0.356 | 0.304 | 0.569 | 0.352 | 0.179 | 0.176 | 0.163
NCI-H1792 | 1.19 | 1.08 | – | 1.07 | 1.09 | 0.536 | 0.251 | 0.235 | 0.173 | 0.177 | 0.975 | 0.851 | 0.278 | 0.344 | – | 0.822 | 0.418 | 0.154 | 0.16
NCI-H1915 | 1.13 | 1.09 | 0.878 | 0.965 | 1.03 | 0.944 | 0.119 | 0.406 | 0.18 | 0.118 | 0.818 | 0.986 | 0.956 | 0.779 | 0.903 | – | 0.362 | 0.294 | 0.268
NCI-H1944 | 0.997 | 1.03 | 0.908 | 0.904 | 1.11 | 0.983 | 0.699 | 0.567 | 0.353 | 0.246 | 0.91 | 0.905 | 0.293 | 0.195 | 1.13 | – | 0.633 | 0.666 | 0.336
NCI-H1975 | 1.09 | 0.969 | 0.795 | 0.998 | 1.07 | 0.475 | 0.365 | 0.258 | 0.159 | 0.136 | 0.968 | 1.07 | 0.566 | 0.343 | 0.369 | 0.276 | 0.212 | 0.121 | 0.115
NCI-H1993 | 0.923 | 0.867 | 0.82 | 0.83 | 0.953 | 1.02 | 0.537 | 0.57 | 0.458 | 0.329 | 1.01 | 0.665 | 0.672 | 0.749 | 0.861 | 0.78 | 0.527 | 0.487 | 0.298

Source: the supplement of paper PMC10307832
